The source of these data is patent US20230066011A1, “PYRROLOPYRIMIDINE DERIVATIVE, AND PHARMACEUTICAL COMPOSITION FOR PREVENTING OR TREATING PROTEIN KINASE-RELATED DISEASE COMPRISING SAME AS ACTIVE INGREDIENT” (VORONOI CO., LTD., priority 2019, published 2023).

One test has as its target T1, human GST-CLK1 (Homo sapiens, UniProt P49759).
T1 construct: purified human GST-CLK1 (129-end, SignalChem) enzyme; purchased SignalChem
The test is described as follows: GST-CLK1 enzyme inhibition, ADP-Glo kinase assay. Conditions: ATP 10 μM, GST-CLK1 129-end. It counts as biochemical. The procedure, abridged: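 ADP-Glo luminescence read-out, relative to untreated solvent control, gave IC50 (nM) from triplicate data sets. Reactions ran an hour at 25° C with 3 ng GST-CLK1 (residues 129-end), 10 μM ATP and specific substrate in Tris-HCl pH 7.4 buffer with MgCl2, BSA and DTT.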
On the technique in general: ADP-Glo turns the ADP formed in a reaction into a luminescent signal.

The next test concerns MDA-MB-468 cell line. The test is described as follows: Inhibition of proliferation of MDA-MB-468 cancer cells (Cell Titer-Glo). It is filed as cell-based. Conditions: Homo sapiens, MDA-MB-468, 72 hours. The procedure, abridged:
(§1)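 2,000 cells/well, DMEM or RPMI; 11-pt 3-fold dilution, final 10.000000–0.000169 μM; 72 h. CellTiter-Glo, 10 min RT, luminescence read; GI50 fitted.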
In general terms: ATP-based viability assays read luminescence as a measure of living cells.

Another test concerns MDA-MB-231 cell line. The test is described as follows: Inhibition of proliferation of MDA-MB-231 cancer cells (Cell Titer-Glo). It is filed as cell-based. The conditions noted are these: Homo sapiens, 72 hours. The procedure, abridged:
as §1

The target of the next test is T2, TTK (Homo sapiens, UniProt P33981).
T2 sequence (P33981 1-857): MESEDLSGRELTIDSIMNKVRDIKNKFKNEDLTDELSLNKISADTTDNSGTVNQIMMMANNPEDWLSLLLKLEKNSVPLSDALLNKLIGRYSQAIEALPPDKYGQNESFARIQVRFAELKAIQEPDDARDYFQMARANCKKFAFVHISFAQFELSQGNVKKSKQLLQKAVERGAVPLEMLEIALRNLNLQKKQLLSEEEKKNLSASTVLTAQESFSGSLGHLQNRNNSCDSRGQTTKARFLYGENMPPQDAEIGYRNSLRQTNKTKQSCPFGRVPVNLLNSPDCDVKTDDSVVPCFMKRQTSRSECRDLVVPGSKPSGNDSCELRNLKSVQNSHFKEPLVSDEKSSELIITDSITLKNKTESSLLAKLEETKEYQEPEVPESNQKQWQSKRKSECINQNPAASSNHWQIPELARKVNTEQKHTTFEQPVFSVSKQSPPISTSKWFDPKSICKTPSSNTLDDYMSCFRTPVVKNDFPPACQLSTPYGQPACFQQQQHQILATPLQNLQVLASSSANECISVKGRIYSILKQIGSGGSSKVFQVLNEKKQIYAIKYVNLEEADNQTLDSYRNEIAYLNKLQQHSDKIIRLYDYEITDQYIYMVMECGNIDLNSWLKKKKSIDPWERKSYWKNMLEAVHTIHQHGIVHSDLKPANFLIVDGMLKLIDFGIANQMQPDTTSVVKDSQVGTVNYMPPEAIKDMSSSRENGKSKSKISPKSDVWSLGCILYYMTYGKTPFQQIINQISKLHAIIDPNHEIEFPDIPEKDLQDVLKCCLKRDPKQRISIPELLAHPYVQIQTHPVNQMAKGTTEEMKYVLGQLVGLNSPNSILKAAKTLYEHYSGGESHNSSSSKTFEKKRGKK
The test can be described thus: TTK enzyme inhibition, ADP-Glo kinase assay. It is filed as biochemical. The arrangement: purchased SignalChem T20-10G. The conditions noted are these: ATP 5 μM. Here is the method: To evaluate an inhibitory activity of the compound according to the present invention against LRRK2, LRRK2 (G2019S), DYRK1, CLK1, and TTK kinases, experiments were performed as follows.
Each of the Example compounds was reacted with a purified human TTK (SignalChem #T20-10G) enzyme to evaluate an ability to inhibit an enzyme using a method as described below. A composition of 40 mM Tris-HCl (pH 7.4), 20 mM MgCl2, 0.1 mg/mL BSA (a 5× kinase buffer, SignalChem #K03-09), and 50 μM DTT (SignalChem #D86-09B) was used as a reaction buffer, and all reactions of test substances were performed in the reaction buffer. Each of the compounds was diluted […] from a 10 mM DMSO stock using a serial dilution method, and enzyme activities were measured at final compound concentrations of 1, 0.333333, 0.111111, 0.037037, 0.012346, 0.004115, 0.001372, 0.000457, 0.000152, 0.000051, and 0.000017 μM. In the test, purified ATP (5 μM, Promega #V6930) and an MBP enzyme substrate (0.2 μg, SignalChem M42-51N) were reacted with a human TTK (7.5 ng) enzyme at 25° C. for 4 hours, and the enzyme activities were then determined using an in vitro ADP-Glo™ kinase assay (Promega #V6930). An enzyme-activity reaction solution, an ADP-Glo reaction solution, and an enzyme-ability detection solution were reacted at a ratio of 2:2:1 to measure a degree of inhibition of the enzyme activity with luminescence. The degree of inhibition of the enzyme activity according to the treatment concentration of each of the compounds was calculated based on the fluorescence of the enzyme activity of the solvent control which was not treated with the compound. In this case, the concentration of each of the compounds inhibiting 50% of the enzyme activity was determined to be an IC50 (nM) value, and calculated using Prism (Version 8.2 GraphPad) software.

For the next test, the target named is T3, human GST-DYRK1A (Homo sapiens, UniProt Q13627).
T3 construct: purified human GST-DYRK1A (full length, Thermo Scientifics) enzyme; purchased Thermo Scientifics
The test can be described thus: GST-DYRK1A enzyme inhibition, ADP-Glo kinase assay. It counts as biochemical. The conditions noted are these: ATP 10 μM, GST-DYRK1A full length, read-out: DYRK1 IC50. An outline of the steps: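 Full-length enzyme (10 ng) was incubated with 10 μM ATP and a specific substrate for 1 h at 25 °C in 40 mM Tris-HCl pH 7.4, 20 mM MgCl2, 0.5 mg/mL BSA, 50 μM DTT. Luminescence was read against a solvent control, and IC50 values were derived from 3 data sets.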

In another test the target is LRRK2 (Homo sapiens, UniProt Q5S007). The test is described as follows: LRRK2 enzyme inhibition, ADP-Glo kinase assay. It is filed as biochemical. Also noted: purchased Invitrogen PR8604B. Conditions: ATP 10 μM. An outline of the steps:
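ADP-Glo luminescent read-out of ADP formed by purified human LRRK2 enzyme (25 ng), 10 μM ATP, 0.2 μg substrate, 25° C for 2 h, Tris-HCl pH 7.4 buffer with MgCl2, BSA, DTT. Inhibition versus untreated solvent control over twelve final concentrations (50 μM downward) gives IC50.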

In a further test the test system is SHP-77. The test is described as follows: Inhibition of proliferation of SHP-77 cancer cells (Cell Titer-Glo). It is filed as cell-based. Conditions: Homo sapiens, SHP77, 72 hours. An outline of the steps: as §1
A further test addresses LRRK2 (G2019S) (Homo sapiens, UniProt Q5S007, G2019S). The test is described as follows: LRRK2 G2019S enzyme inhibition, ADP-Glo kinase assay. It is filed as biochemical. Conditions: ATP 25 μM. The arrangement: purchased SignalChem L10-12GG. An outline of the steps: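 IC50 derived from luminescent ADP-Glo readout against untreated solvent control, twelve final compound concentrations from 50 μM downward. Reaction: recombinant human LRRK2 G2019S enzyme, 25 μM ATP, substrate, pH 7.4 Tris buffer with MgCl2/BSA/DTT, 25° C. for 2 hours.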

Molecules are shown by their SMILES. pIC50: −log10 of the molar value.

T1 sequence (P49759 129-484 limits assumed): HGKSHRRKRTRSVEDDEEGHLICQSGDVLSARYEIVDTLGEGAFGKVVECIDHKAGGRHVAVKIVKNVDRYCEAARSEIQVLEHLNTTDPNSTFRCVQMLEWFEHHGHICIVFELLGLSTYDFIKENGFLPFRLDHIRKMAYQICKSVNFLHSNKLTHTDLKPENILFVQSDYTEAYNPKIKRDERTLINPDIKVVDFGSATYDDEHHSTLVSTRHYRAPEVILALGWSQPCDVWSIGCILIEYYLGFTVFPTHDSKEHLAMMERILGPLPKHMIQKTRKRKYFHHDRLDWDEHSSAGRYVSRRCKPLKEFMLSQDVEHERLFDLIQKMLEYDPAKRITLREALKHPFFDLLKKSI
Chain of LRRK2 (Q5S007 970-2527 limits assumed): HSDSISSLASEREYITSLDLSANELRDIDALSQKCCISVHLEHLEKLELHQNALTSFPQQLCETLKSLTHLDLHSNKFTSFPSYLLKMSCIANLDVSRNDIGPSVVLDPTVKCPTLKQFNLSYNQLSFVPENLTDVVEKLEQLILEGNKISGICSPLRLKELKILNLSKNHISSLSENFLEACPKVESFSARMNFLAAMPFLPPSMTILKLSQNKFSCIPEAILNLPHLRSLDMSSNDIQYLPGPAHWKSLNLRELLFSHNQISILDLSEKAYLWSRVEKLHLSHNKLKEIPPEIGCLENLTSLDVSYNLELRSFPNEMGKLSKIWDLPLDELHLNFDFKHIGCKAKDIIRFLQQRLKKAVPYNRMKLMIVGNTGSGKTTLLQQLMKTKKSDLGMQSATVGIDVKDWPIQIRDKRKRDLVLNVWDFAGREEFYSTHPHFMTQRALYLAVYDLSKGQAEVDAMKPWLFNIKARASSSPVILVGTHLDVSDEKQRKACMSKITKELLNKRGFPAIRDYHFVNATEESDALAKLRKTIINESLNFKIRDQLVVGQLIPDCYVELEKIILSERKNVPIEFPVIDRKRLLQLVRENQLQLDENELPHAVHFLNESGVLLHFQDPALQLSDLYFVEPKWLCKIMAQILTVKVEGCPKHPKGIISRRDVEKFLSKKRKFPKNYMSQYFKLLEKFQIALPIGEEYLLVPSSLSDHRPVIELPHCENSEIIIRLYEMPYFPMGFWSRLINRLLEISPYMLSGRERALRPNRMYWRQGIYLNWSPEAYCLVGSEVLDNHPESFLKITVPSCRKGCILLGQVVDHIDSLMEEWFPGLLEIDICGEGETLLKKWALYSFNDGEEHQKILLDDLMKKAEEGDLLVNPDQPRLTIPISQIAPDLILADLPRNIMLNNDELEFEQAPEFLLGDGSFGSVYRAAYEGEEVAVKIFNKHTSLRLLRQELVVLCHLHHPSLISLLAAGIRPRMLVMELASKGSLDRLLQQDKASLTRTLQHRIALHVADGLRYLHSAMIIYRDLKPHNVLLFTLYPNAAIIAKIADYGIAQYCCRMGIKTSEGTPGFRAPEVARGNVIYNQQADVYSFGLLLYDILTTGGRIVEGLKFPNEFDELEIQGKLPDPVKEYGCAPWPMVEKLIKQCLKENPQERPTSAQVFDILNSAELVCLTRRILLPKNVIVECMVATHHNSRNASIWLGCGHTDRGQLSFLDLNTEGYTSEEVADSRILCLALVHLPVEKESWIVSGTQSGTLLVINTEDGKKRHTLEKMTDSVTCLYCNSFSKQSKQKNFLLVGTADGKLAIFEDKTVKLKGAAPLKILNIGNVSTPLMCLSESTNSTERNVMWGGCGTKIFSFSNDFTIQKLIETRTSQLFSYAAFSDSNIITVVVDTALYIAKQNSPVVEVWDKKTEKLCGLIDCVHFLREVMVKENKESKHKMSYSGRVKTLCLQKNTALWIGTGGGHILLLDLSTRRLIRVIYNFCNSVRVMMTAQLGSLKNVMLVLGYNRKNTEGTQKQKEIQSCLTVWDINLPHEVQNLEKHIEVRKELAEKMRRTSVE
Chain of LRRK2 (G2019S) (Q5S007 970-2527 G2019S limits assumed): as the sequence (Q5S007 970-2527 limits assumed) above, with G1050S counted along it

With `N#Cc1c[nH]c2nc(Nc3ccc(C(=O)N4CCOCC4)c4c3OCO4)nc(NC3CCCC3)c12` [Example 152, 4-(cyclopentylamino)-2-((7-(morpholine-4-carbonyl)benzo[d][1,3]dioxol-4-yl)amino)-7H-pyrrolo[2,3-d]pyrimidine-5-carbonitrile], the negative logarithm of the IC50 (pIC50) – broadly, −log10 of the IC50, conventionally taken in molar units – at human GST-CLK1 is over 7.00; at TTK, over 7.00; at human GST-DYRK1A, 6.52 to 7.00. Also, the GI50 in the test on MDA-MB-468 cell line and in the test on MDA-MB-231 cell line was 51 to 100 nM throughout.
As to `COc1cc(S(=O)(=O)N2CCC(N3CCOCC3)CC2)ccc1Nc1nc(NC2CCCC2)c2c(C#N)c[nH]c2n1` [Example 90, 4-(cyclopentylamino)-2-((2-methoxy-4-((4-morpholinopiperidin-1-yl)sulfonyl)phenyl)amino)-7H-pyrrolo[2,3-d]pyrimidine-5-carbonitrile], the pIC50 was 6.00 to 6.52 against human GST-CLK1, 6.52 to 7.00 at LRRK2, over 7.00 on LRRK2 (G2019S) and 6.00 to 6.52 at human GST-DYRK1A. The GI50 (commonly the concentration that inhibits growth by half) in the test on MDA-MB-468 cell line lay within 51 to 100 nM; in the test on SHP-77 it was 101 to 300 nM; with MDA-MB-231 cell line, 51 to 100 nM.
On to `N#Cc1c[nH]c2nc(Nc3ccc(C(=O)N4CCN(C5CC5)CC4)c4c3OCCO4)nc(NC3CCCCC3)c12` [Example 145], for which the pIC50 is 6.00 to 6.52 at human GST-CLK1, over 7.00 against TTK and 6.00 to 6.52 on human GST-DYRK1A. The GI50 in the test with MDA-MB-468 cell line and in the test with MDA-MB-231 cell line was 51 to 100 nM each time.
Regarding `CN1CCC(NC(=O)c2ccc(Nc3nc(NC4CCCC4)c4c(C#N)c[nH]c4n3)c3c2OCCO3)CC1` [Example 146, 8-((5-cyano-4-(cyclopentylamino)-7H-pyrrolo[2,3-d]pyrimidin-2-yl)amino)-N-(1-methylpiperidin-4-yl)-2,3-dihydrobenzo[b][1,4]dioxin-5-carboxamide], the concentration for 50% growth inhibition (GI50) in the test with MDA-MB-468 cell line and in the test with MDA-MB-231 cell line was 101 to 300 nM throughout. The compound also showed a pIC50 against TTK of over 7.00.
On to `COc1cc(P2(=O)CCN(C3COC3)CC2)ccc1Nc1nc(NC2CCCC2)c2c(C#N)c[nH]c2n1` [Example 313, 4-(cyclo-pentylamino)-2-((2-methoxy-4-(1-(oxetan-3-yl)-4-oxido-1,4-azaphosphinan-4-yl)phenyl)amino)-7H-pyrrolo[2,3-d]pyrimidine-5-carbonitrile], for which the pIC50 is 6.52 to 7.00 against human GST-CLK1, over 7.00 against TTK and 6.52 to 7.00 at human GST-DYRK1A.
For the compound `N#Cc1c[nH]c2nc(Nc3ccc(C(=O)N4CCCC4)c4c3OCCO4)nc(NC3CCCCC3)c12` [Example 149, 4-(cyclohexylamino)-2-((8-(pyrrolidine-1-carbonyl)-2,3-dihydrobenzo[b][1,4]dioxin-5-yl)amino)-7H-pyrrolo[2,3-d]pyrimidine-5-carbonitrile], the pIC50 against human GST-CLK1 was 6.00 to 6.52; against TTK it was over 7.00; on human GST-DYRK1A, 6.00 to 6.52. In addition, the values for the concentration for 50% growth inhibition (GI50) with MDA-MB-468 cell line and with MDA-MB-231 cell line were 51 to 100 nM and under 50 nM, respectively.
For the compound `N#Cc1c[nH]c2nc(Nc3ccc(C(=O)N4CCN(C5COC5)CC4)c4c3OCCO4)nc(NC3CCCCC3)c12` [Example 144, 4-(cyclohexylamino)-2-((8-(4-(oxetan-3-yl)piperazine-1-carbonyl)-2,3-dihydrobenzo[b][1,4]dioxin-5-yl)amino)-7H-pyrrolo[2,3-d]pyrimidine-5-carbonitrile], the pIC50 on human GST-CLK1 is 6.52 to 7.00; against TTK, over 7.00; at human GST-DYRK1A it was 6.00 to 6.52. Also, the values for the GI50 in the test with MDA-MB-468 cell line and in the test on MDA-MB-231 cell line were 51 to 100 nM and under 50 nM, respectively.
For `N#Cc1c[nH]c2nc(Nc3ccc(C(=O)N4CCN(C5CC5)CC4)c4c3OCCO4)nc(NC3CCCC3)c12` [Example 148, 4-(cyclopentylamino)-2-((8-(4-cyclopropylpiperazine-1-carbonyl)-2,3-dihydrobenzo[b][1,4]dioxin-5-yl)amino)-7H-pyrrolo[2,3-d]pyrimidine-5-carbonitrile] the same measures were 6.00 to 6.52, over 7.00, 6.00 to 6.52, 101 to 300 nM and 101 to 300 nM.
Consider `COc1cc(P2(=O)CCN(C3CCOCC3)CC2)ccc1Nc1nc(NC2CCCCC2)c2cc[nH]c2n1` [Example 61, 4-(4-((4-(cyclohexylamino)-7H-pyrrolo[2,3-d]pyrimidin-2-yl)amino)-3-methoxyphenyl)-1-(tetrahydro-2H-pyran-4-yl)-1,4-azaphosphinane 4-oxide], for which the pIC50 on human GST-CLK1 is 6.00 to 6.52; on TTK, over 7.00; on human GST-DYRK1A, 6.00 to 6.52. This compound also came in with a GI50 in the test with MDA-MB-231 cell line of 301 to 1000 nM.
Turning to `COc1cc(S(=O)(=O)N2CCOCC2)ccc1Nc1nc(NC2CCCCC2)c2c(C#N)c[nH]c2n1` [Example 73], the negative-log IC50 (pIC50) is 6.00 to 6.52 against human GST-CLK1, over 7.00 at LRRK2, 6.00 to 6.52 on LRRK2 (G2019S) and 6.00 to 6.52 on human GST-DYRK1A. For the same compound, the GI50 in the test on MDA-MB-468 cell line is 101 to 300 nM; in the test with SHP-77, under 50 nM; with MDA-MB-231 cell line, under 50 nM.
Turning to `COc1cc(S(=O)(=O)N2CCC(N3CCOCC3)CC2)ccc1Nc1nc(NC2CCCCC2)c2c(C#N)c[nH]c2n1` [Example 91, 4-(cyclohexylamino)-2-((2-methoxy-4-((4-morpholinopiperidin-1-yl)sulfonyl)phenyl)amino)-7H-pyrrolo[2,3-d]pyrimidine-5-carbonitrile], the pIC50 at human GST-CLK1 is 6.00 to 6.52; at LRRK2 it was over 7.00; against LRRK2 (G2019S), over 7.00; on human GST-DYRK1A, 6.00 to 6.52. Moreover, the concentration for 50% growth inhibition (GI50) is 51 to 100 nM in the test with MDA-MB-468 cell line, under 50 nM in the test with SHP-77 and 51 to 100 nM in the test with MDA-MB-231 cell line.
